From patent publication US20140213513A1 (Sanofi, priority 2012, published 2014)
pEC50: −log10 of the molar value. Converted amounts (≈) assume the structure as drawn. Read-outs that look alike come from different tables or passages of the source.

Experiments:
[1] = molecular target: T1, human GIP receptor (hGIP R) (Homo sapiens, UniProt P48546); assay: cAMP response of HEK-293 cells stably expressing human GIP receptor (HTRF); assay type: cell-based; settings: Table 7; cAMP formation
T1 construct: expressed in transfected cells
T1 sequence (P48546 22-466): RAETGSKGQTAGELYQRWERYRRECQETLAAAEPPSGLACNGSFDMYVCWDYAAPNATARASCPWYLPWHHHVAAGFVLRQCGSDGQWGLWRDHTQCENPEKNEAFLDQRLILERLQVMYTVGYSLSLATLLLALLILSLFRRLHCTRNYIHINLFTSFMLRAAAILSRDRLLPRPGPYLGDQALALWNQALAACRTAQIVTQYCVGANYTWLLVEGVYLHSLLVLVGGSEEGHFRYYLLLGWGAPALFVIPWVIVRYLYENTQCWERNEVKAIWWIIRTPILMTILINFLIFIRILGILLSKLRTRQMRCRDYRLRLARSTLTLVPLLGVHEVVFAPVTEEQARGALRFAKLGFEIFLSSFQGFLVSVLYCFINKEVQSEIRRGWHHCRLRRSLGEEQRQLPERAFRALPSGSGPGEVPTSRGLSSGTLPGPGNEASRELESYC
Procedure, shortened: (§1)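 After near-confluent growth in DMEM with 10% FBS, cells were washed in Ca/Mg-free PBS, lifted with accutase and diluted to 400000 cells/ml in IBMX (2 mM)-containing HEPES-buffered HBSS with 0.1% BSA. Compounds were applied for 30 minutes at room temperature before homogeneous time-resolved fluorescence quantitation of cAMP.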

[2] = Solubility testing in buffer (HPLC-UV of supernatant); assay type: physicochemical
[3] = Pharmacokinetic testing in mice (plasma LC/MS); assay type: in vivo; settings: mouse, sc, 1 mg/kg s.c.
Protocol: Mice were dosed 1 mg/kg subcutaneously (s.c.).
Pharmacokinetic profiles were determined as described in Methods.

[4] = molecular target: T2, human GLP-1 receptor (hGLP-1 R) (Homo sapiens, UniProt P43220); assay: cAMP response of HEK-293 cells stably expressing human GLP-1 receptor (HTRF); assay type: cell-based; settings: Table 7; cAMP formation
T2 construct: expressed in transfected cells
T2 sequence (P43220 24-463): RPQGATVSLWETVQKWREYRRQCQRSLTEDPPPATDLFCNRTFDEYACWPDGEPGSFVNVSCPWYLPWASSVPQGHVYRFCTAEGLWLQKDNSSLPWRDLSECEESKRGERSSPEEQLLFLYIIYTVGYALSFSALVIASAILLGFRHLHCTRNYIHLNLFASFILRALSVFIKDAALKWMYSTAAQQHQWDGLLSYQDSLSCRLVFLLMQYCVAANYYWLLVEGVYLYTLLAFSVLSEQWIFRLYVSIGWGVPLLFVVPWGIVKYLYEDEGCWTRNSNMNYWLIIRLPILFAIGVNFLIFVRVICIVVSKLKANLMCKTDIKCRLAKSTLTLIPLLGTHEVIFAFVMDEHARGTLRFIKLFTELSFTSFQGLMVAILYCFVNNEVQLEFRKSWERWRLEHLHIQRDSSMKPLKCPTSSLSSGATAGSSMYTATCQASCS
Procedure, shortened: as §1

[5] = molecular target: T3, human glucagon receptor (hGLUC R) (Homo sapiens, UniProt P47871); assay: cAMP response of HEK-293 cells stably expressing human glucagon receptor (HTRF); assay type: cell-based; settings: Table 7; cAMP formation
T3 construct: expressed in transfected cells
T3 sequence (P47871 26-477): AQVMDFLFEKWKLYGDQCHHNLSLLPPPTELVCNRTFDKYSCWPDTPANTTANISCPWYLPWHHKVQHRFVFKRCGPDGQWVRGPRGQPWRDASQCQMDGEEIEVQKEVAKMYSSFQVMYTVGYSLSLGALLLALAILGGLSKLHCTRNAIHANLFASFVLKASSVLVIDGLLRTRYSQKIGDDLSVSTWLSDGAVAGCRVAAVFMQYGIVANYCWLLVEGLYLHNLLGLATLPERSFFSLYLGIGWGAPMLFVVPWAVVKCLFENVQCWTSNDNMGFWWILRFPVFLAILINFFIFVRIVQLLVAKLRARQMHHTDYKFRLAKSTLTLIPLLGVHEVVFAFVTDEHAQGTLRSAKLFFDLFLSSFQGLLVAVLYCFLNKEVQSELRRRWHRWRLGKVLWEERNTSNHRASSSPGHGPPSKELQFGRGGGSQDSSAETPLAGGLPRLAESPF
Procedure, shortened: as §1

[6] = molecular target: human GLP-1 receptor (human) (UniProt P43220); assay: cell-based or functional assay
Sequence of human GLP-1 receptor (human) (P43220 24-463): as the sequence (P43220 24-463) above

[7] = molecular target: T4, human GIP receptor (human) (UniProt P48546); assay: cell-based or functional assay
T4 sequence (looked up): T1 sequence (P48546 22-466)

Molecule	pEC50 [1]	solubility at 2 h ([2]; pH 4.5, target concentration 1.0 mg/mL, read-out: Solubility (pH 4.5))	solubility at 2 h ([2]; pH 7.4, target concentration 1.0 mg/mL, read-out: Solubility (pH 7.4))	Cmax [3]	half-life [3]	pEC50 [4]	pEC50 [5]	EC50 hGLP-1 R [6]	EC50 hGIP R [7]
CCCCCCCCCCCCCCCC(=O)N[C@@H](CCC(=O)NCCCC[C@H](NC(=O)[C@H](CCC(N)=O)NC(=O)[C@@H](NC(=O)[C@H](CO)NC(=O)[C@H](CC(C)C)NC(=O)[C@H](CC(=O)O)NC(=O)[C@H](CO)NC(=O)[C@@H](NC(=O)[C@H](Cc1ccccc1)NC(=O)[C@@H](NC(=O)CNC(=O)[C@H](CCC(N)=O)NC(=O)C(C)(C)NC(=O)[C@@H](N)Cc1ccc(O)cc1)[C@@H](C)O)[C@@H](C)O)[C@@H](C)CC)C(=O)N[C@@H](CCC(=O)O)C(=O)N[C@@H](CCCCN)C(=O)N[C@@H](CCCNC(=N)N)C(=O)N[C@@H](C)C(=O)N[C@@H](C)C(=O)NC(C)(C)C(=O)N[C@@H](CCC(=O)O)C(=O)N[C@@H](Cc1ccccc1)C(=O)N[C@H](C(=O)N[C@@H](CCC(=O)O)C(=O)N[C@@H](Cc1c[nH]c2ccccc12)C(=O)N[C@@H](CC(C)C)C(=O)N[C@@H](CCCCN)C(=O)N[C@@H](C)C(=O)N[C@H](C)C(=O)NCC(=O)N1CCC[C@H]1C(=O)N[C@@H](CO)C(=O)N[C@@H](CO)C(=O)NCC(=O)N[C@@H](C)C(=O)N1CCC[C@H]1C(=O)N1CCC[C@H]1C(=O)N1CCC[C@H]1C(=O)N[C@@H](CO)C(N)=O)[C@@H](C)CC)C(=O)O [SEQ ID NO: 14, Y-Aib-Q-G-T-F-T-S-D-L-S-I-Q-K(yE-x53)-E-K-R-A-A-Aib-E-F-I-E-W-L-K-A-dAla-G-P-S-S-G-A-P-P-P-S-N H2]	11.21	1020 µg/mL (≈ 227 µM)	> 1000 µg/mL	5570 ng/mL	132 min	11.19	10.21		
Tyr(1)Ile(12)-exendin-4 (peptide)								1.3 pM	93.9 pM
